# Laboratory results from ChEMBL document CHEMBL3808371, “Design, synthesis and biological evaluation of diaziridinyl quinone isoxazole hybrids” (Eur J Med Chem, 2016).
# Active and inactive are the calls of the source. The calls are words filed in the database; no cut-off is given here.
# Columns and labels:
# A549 = assay: Cytotoxicity against human A549 cells after 72 hrs by XTT assay; assay type: functional, cell-based; conditions: A549, 72 h
# [1] = Cytotoxicity against human PC3 cells after 72 hrs by XTT assay; assay type: functional, cell-based; conditions: PC-3, 72 h
# Staphylococcus aureus [2] = assay: Antimicrobial activity against Staphylococcus aureus MTCC 96 after 24 hrs by well diffusion method; assay type: functional; conditions: MTCC 96, 24 h
# Bacillus subtilis [3] = assay: Antimicrobial activity against Bacillus subtilis MTCC 121 after 24 hrs by well diffusion method; assay type: functional; conditions: MTCC 121, 24 h
# Staphylococcus aureus [4] = assay: Antimicrobial activity against Staphylococcus aureus MLS16 MTCC 2940 after 24 hrs by well diffusion method; assay type: functional; conditions: MLS16 MTCC 2940, 24 h
# Micrococcus luteus [5] = assay: Antimicrobial activity against Micrococcus luteus MTCC 2470 after 24 hrs by well diffusion method; assay type: functional; conditions: MTCC 2470, 24 h
# Raoultella planticola [6] = assay: Antimicrobial activity against Klebsiella planticola MTCC 530 after 24 hrs by well diffusion method; assay type: functional; conditions: MTCC 530, 24 h
# Escherichia coli = assay: Antimicrobial activity against Escherichia coli MTCC 739 after 24 hrs by well diffusion method; assay type: functional; conditions: MTCC 739, 24 h
# Pseudomonas aeruginosa = assay: Antimicrobial activity against Pseudomonas aeruginosa MTCC 2453 after 24 hrs by well diffusion method; assay type: functional; conditions: MTCC 2453, 24 h
# Candida albicans = assay: Antimicrobial activity against Candida albicans MTCC 3017 after 24 hrs by well diffusion method; assay type: functional
# Bacillus subtilis [7] = assay: Bactericidal activity against Bacillus subtilis MTCC 121 after 24 hrs by serial dilution method; assay type: functional; conditions: MTCC 121, 24 h
# Staphylococcus aureus [8] = assay: Bactericidal activity against Staphylococcus aureus MTCC 96 after 24 hrs by serial dilution method; assay type: functional; conditions: MTCC 96, 24 h
# Staphylococcus aureus [9] = assay: Bactericidal activity against Staphylococcus aureus MLS16 MTCC 2940 after 24 hrs by serial dilution method; assay type: functional; conditions: MLS16 MTCC 2940, 24 h
# Micrococcus luteus [10] = assay: Bactericidal activity against Micrococcus luteus MTCC 2470 after 24 hrs by serial dilution method; assay type: functional; conditions: MTCC 2470, 24 h
# Raoultella planticola [11] = assay: Bactericidal activity against Klebsiella planticola MTCC 530 after 24 hrs by serial dilution method; assay type: functional; conditions: MTCC 530, 24 h
# Bacillus subtilis [12] = assay: Antibiofilm activity against Bacillus subtilis MTCC 121 after 24 hrs by crystal violet staining based assay; assay type: functional, organism-based; conditions: MTCC 121, 24 h
# Micrococcus luteus [13] = assay: Antibiofilm activity against Micrococcus luteus MTCC 2470 after 24 hrs by crystal violet staining based assay; assay type: functional, organism-based; conditions: MTCC 2470, 24 h
# Staphylococcus aureus [14] = assay: Antibiofilm activity against Staphylococcus aureus MTCC 96 after 24 hrs by crystal violet staining based assay; assay type: functional, organism-based; conditions: MTCC 96, 24 h
# Staphylococcus aureus [15] = assay: Antibiofilm activity against Staphylococcus aureus MLS16 MTCC 2940 after 24 hrs by crystal violet staining based assay; assay type: functional, organism-based; conditions: MLS16 MTCC 2940, 24 h
# Raoultella planticola [16] = assay: Antibiofilm activity against Klebsiella planticola MTCC 530 after 24 hrs by crystal violet staining based assay; assay type: functional, organism-based; conditions: MTCC 530, 24 h
compound,measurement,setting,value
COc1ccc(OC)c(-c2cc(-c3ccc(C(=O)N4CCCC4)s3)on2)c1,IC50,A549,> 30 µM
same,IC50,[1],> 30 µM
COc1ccc(OC)c(-c2cc(-c3ccc(C(=O)N4CCC(C(F)(F)F)CC4)s3)on2)c1,IC50,A549,> 30 µM
same,IC50,[1],> 30 µM
O=C1C=C(N2CC2)C(=O)C(c2cc(-c3ccc(C(=O)N4CCC(C(F)(F)F)CC4)s3)on2)=C1N1CC1,IC50,A549,3.7 µM
same,IC50,[1],2 µM
same,MIC,Staphylococcus aureus [2],> 125 µg/mL
same,MIC,Bacillus subtilis [3],3.9 µg/mL
same,MIC,Staphylococcus aureus [4],> 125 µg/mL
same,MIC,Micrococcus luteus [5],31.2 µg/mL
same,MIC,Raoultella planticola [6],> 125 µg/mL
same,MIC,Escherichia coli,> 125 µg/mL
same,MIC,Pseudomonas aeruginosa,> 125 µg/mL
same,MIC,"Candida albicans; MTCC 3017, 24 h",31.2 µg/mL
same,MBC,Bacillus subtilis [7],7.8 µg/mL
same,MBC,Staphylococcus aureus [8],> 125 µg/mL
same,MBC,Staphylococcus aureus [9],> 125 µg/mL
same,MBC,Micrococcus luteus [10],62.5 µg/mL
same,MBC,Raoultella planticola [11],> 125 µg/mL
same,IC50,Bacillus subtilis [12],2.1 µM
same,IC50,Micrococcus luteus [13],16.2 µM
COc1ccc(OC)c(-c2cc(-c3ccc(C(=O)NC4CC4)s3)on2)c1,IC50,A549,> 30 µM
same,IC50,[1],7.8 µM
COc1ccc(OC)c(-c2cc(-c3ccc(C(=O)N(C)C)s3)on2)c1,IC50,A549,> 30 µM
same,IC50,[1],> 30 µM
CCN(CC)C(=O)c1ccc(-c2cc(C3=C(N4CC4)C(=O)C=C(N4CC4)C3=O)no2)s1,IC50,A549,0.9 µM
same,IC50,[1],0.5 µM
same,MIC,Staphylococcus aureus [2],7.8 µg/mL
same,MIC,Bacillus subtilis [3],7.8 µg/mL
same,MIC,Staphylococcus aureus [4],7.8 µg/mL
same,MIC,Micrococcus luteus [5],15.6 µg/mL
same,MIC,Raoultella planticola [6],15.6 µg/mL
same,MIC,Escherichia coli,> 125 µg/mL
same,MIC,Pseudomonas aeruginosa,> 125 µg/mL
same,MIC,"Candida albicans; MTCC 3017, 24 h",15.6 µg/mL
same,MBC,Bacillus subtilis [7],31.2 µg/mL
same,MBC,Staphylococcus aureus [8],15.6 µg/mL
same,MBC,Staphylococcus aureus [9],31.2 µg/mL
same,MBC,Micrococcus luteus [10],62.5 µg/mL
same,MBC,Raoultella planticola [11],62.5 µg/mL
CN(C)C(=O)c1ccc(-c2cc(C3=CC(=O)C=CC3=O)no2)s1,IC50,A549,> 30 µM
same,IC50,[1],7.2 µM
COc1ccc(OC)c(-c2cc(-c3ccc(C(=O)NCC4CC4)s3)on2)c1,IC50,A549,> 30 µM
same,IC50,[1],> 30 µM
O=C1C=CC(=O)C(c2cc(-c3ccc(C(=O)NCC4CC4)s3)on2)=C1,IC50,A549,> 30 µM
same,IC50,[1],> 30 µM
COc1ccc(OC)c(-c2cc(-c3ccc(C(=O)N(C)Cc4ccccc4)s3)on2)c1,IC50,A549,> 30 µM
same,IC50,[1],> 30 µM
CCCN(C)C(=O)c1ccc(-c2cc(C3=CC(=O)C=CC3=O)no2)s1,IC50,A549,> 30 µM
same,IC50,[1],< 30 µM
CN(C)C(=O)c1ccc(-c2cc(C3=C(N4CC4)C(=O)C=C(N4CC4)C3=O)no2)s1,IC50,A549,1.5 µM
same,IC50,[1],> 30 µM
same,MIC,Staphylococcus aureus [2],15.6 µg/mL
same,MIC,Bacillus subtilis [3],3.9 µg/mL
same,MIC,Staphylococcus aureus [4],15.6 µg/mL
same,MIC,Micrococcus luteus [5],62.5 µg/mL
same,MIC,Raoultella planticola [6],7.8 µg/mL
same,MIC,Escherichia coli,> 125 µg/mL
same,MIC,Pseudomonas aeruginosa,> 125 µg/mL
same,MIC,"Candida albicans; MTCC 3017, 24 h",15.6 µg/mL
same,MBC,Bacillus subtilis [7],7.8 µg/mL
same,MBC,Staphylococcus aureus [8],31.2 µg/mL
same,MBC,Staphylococcus aureus [9],31.2 µg/mL
same,MBC,Micrococcus luteus [10],125 µg/mL
same,MBC,Raoultella planticola [11],31.2 µg/mL
same,IC50,Bacillus subtilis [12],2.2 µM
same,IC50,Staphylococcus aureus [14],9.8 µM
same,IC50,Staphylococcus aureus [15],10.1 µM
same,IC50,Micrococcus luteus [13],38.9 µM
same,IC50,Raoultella planticola [16],6.1 µM
CCCN(C)C(=O)c1ccc(-c2cc(-c3cc(OC)ccc3OC)no2)s1,IC50,A549,> 30 µM
same,IC50,[1],> 30 µM
O=C1C=C(N2CC2)C(=O)C(c2cc(-c3ccc(C(=O)N4CCCC4)s3)on2)=C1N1CC1,IC50,A549,1.7 µM
same,IC50,[1],1 µM
same,MIC,Staphylococcus aureus [2],15.6 µg/mL
same,MIC,Bacillus subtilis [3],7.8 µg/mL
same,MIC,Staphylococcus aureus [4],15.6 µg/mL
same,MIC,Micrococcus luteus [5],31.2 µg/mL
same,MIC,Raoultella planticola [6],15.6 µg/mL
same,MIC,Escherichia coli,> 125 µg/mL
same,MIC,Pseudomonas aeruginosa,> 125 µg/mL
same,MIC,"Candida albicans; MTCC 3017, 24 h",31.2 µg/mL
same,MBC,Bacillus subtilis [7],15.6 µg/mL
same,MBC,Staphylococcus aureus [8],31.2 µg/mL
same,MBC,Staphylococcus aureus [9],31.2 µg/mL
same,MBC,Micrococcus luteus [10],62.5 µg/mL
same,MBC,Raoultella planticola [11],31.2 µg/mL
CCN(CC)C(=O)c1ccc(-c2cc(C3=CC(=O)C=CC3=O)no2)s1,IC50,A549,10 µM
same,IC50,[1],8.9 µM
O=C1C=CC(=O)C(c2cc(-c3ccc(C(=O)N4CCCCC4)s3)on2)=C1,IC50,A549,> 30 µM
same,IC50,[1],> 30 µM
O=C(O)c1cn(C2CC2)c2cc(N3CCNCC3)c(F)cc2c1=O [CIPROFLOXACIN],MIC,Staphylococcus aureus [2],0.9 µg/mL
same,MIC,Bacillus subtilis [3],0.9 µg/mL
same,MIC,Staphylococcus aureus [4],0.9 µg/mL
same,MIC,Micrococcus luteus [5],0.9 µg/mL
same,MIC,Raoultella planticola [6],0.9 µg/mL
same,MIC,Escherichia coli,0.9 µg/mL
same,MIC,Pseudomonas aeruginosa,0.9 µg/mL
same,MIC,Candida albicans,inactive
same,MBC,Bacillus subtilis [7],1.9 µg/mL
same,MBC,Staphylococcus aureus [8],0.9 µg/mL
same,MBC,Staphylococcus aureus [9],1.9 µg/mL
same,MBC,Micrococcus luteus [10],0.9 µg/mL
same,MBC,Raoultella planticola [11],1.9 µg/mL
same,IC50,Staphylococcus aureus [14],0.7 µM
same,IC50,Micrococcus luteus [13],0.8 µM
same,IC50,Raoultella planticola [16],0.6 µM
O=C1C=C(N2CC2)C(=O)C(c2cc(-c3ccc(C(=O)NCC4CC4)s3)on2)=C1N1CC1,IC50,A549,2.1 µM
same,IC50,[1],3.5 µM
same,MIC,Staphylococcus aureus [2],> 125 µg/mL
same,MIC,Bacillus subtilis [3],15.6 µg/mL
same,MIC,Staphylococcus aureus [4],> 125 µg/mL
same,MIC,Micrococcus luteus [5],> 125 µg/mL
same,MIC,Raoultella planticola [6],> 125 µg/mL
same,MIC,Escherichia coli,> 125 µg/mL
same,MIC,Pseudomonas aeruginosa,> 125 µg/mL
same,MIC,"Candida albicans; MTCC 3017, 24 h",15.6 µg/mL
same,MBC,Bacillus subtilis [7],31.2 µg/mL
same,MBC,Staphylococcus aureus [8],> 125 µg/mL
same,MBC,Staphylococcus aureus [9],> 125 µg/mL
same,MBC,Micrococcus luteus [10],> 125 µg/mL
same,MBC,Raoultella planticola [11],> 125 µg/mL
same,IC50,Bacillus subtilis [12],9.8 µM
CCN(CC)C(=O)c1ccc(-c2cc(-c3cc(OC)ccc3OC)no2)s1,IC50,A549,11 µM
same,IC50,[1],> 30 µM
COc1ccc(CN(C)C(=O)c2ccc(-c3cc(-c4cc(OC)ccc4OC)no3)s2)cc1,IC50,A549,> 30 µM
same,IC50,[1],> 30 µM
COc1ccc(OC)c(-c2cc(-c3ccc(C(=O)N4CCOCC4)s3)on2)c1,IC50,A549,> 30 µM
same,IC50,[1],> 30 µM
CN(Cc1ccccc1)C(=O)c1ccc(-c2cc(C3=C(N4CC4)C(=O)C=C(N4CC4)C3=O)no2)s1,IC50,A549,7.3 µM
same,IC50,[1],1.2 µM
same,MIC,Staphylococcus aureus [2],31.2 µg/mL
same,MIC,Bacillus subtilis [3],31.2 µg/mL
same,MIC,Staphylococcus aureus [4],62.5 µg/mL
same,MIC,Micrococcus luteus [5],15.6 µg/mL
same,MIC,Raoultella planticola [6],> 125 µg/mL
same,MIC,Escherichia coli,> 125 µg/mL
same,MIC,Pseudomonas aeruginosa,> 125 µg/mL
same,MIC,"Candida albicans; MTCC 3017, 24 h",> 125 µg/mL
same,MBC,Bacillus subtilis [7],125 µg/mL
same,MBC,Staphylococcus aureus [8],62.5 µg/mL
same,MBC,Staphylococcus aureus [9],125 µg/mL
same,MBC,Micrococcus luteus [10],62.5 µg/mL
same,MBC,Raoultella planticola [11],> 125 µg/mL
O=C1C=CC(=O)C(c2cc(-c3ccc(C(=O)N4CCCC4)s3)on2)=C1,IC50,A549,> 30 µM
same,IC50,[1],< 30 µM
CN(Cc1ccc(F)cc1)C(=O)c1ccc(-c2cc(C3=CC(=O)C=CC3=O)no2)s1,IC50,A549,> 30 µM
same,IC50,[1],> 30 µM
COc1ccc(OC)c(-c2cc(-c3ccc(C(=O)N(C)Cc4ccc(F)cc4)s3)on2)c1,IC50,A549,> 30 µM
same,IC50,[1],> 30 µM
COc1ccc(OC)c(-c2cc(-c3ccc(C(=O)N4CCCCC4)s3)on2)c1,IC50,A549,> 30 µM
same,IC50,[1],> 30 µM
CN(Cc1ccccc1)C(=O)c1ccc(-c2cc(C3=CC(=O)C=CC3=O)no2)s1,IC50,A549,> 30 µM
same,IC50,[1],11 µM
COc1ccc(CN(C)C(=O)c2ccc(-c3cc(C4=CC(=O)C=CC4=O)no3)s2)cc1,IC50,A549,> 30 µM
same,IC50,[1],< 30 µM
O=C1C=CC(=O)C(c2cc(-c3ccc(C(=O)N4CCC(C(F)(F)F)CC4)s3)on2)=C1,IC50,A549,> 30 µM
same,IC50,[1],> 30 µM
